Measured values as given in ChEMBL document CHEMBL5236581, “A Versatile and Sustainable Multicomponent Platform for the Synthesis of Protein Degraders: Proof-of-Concept Application to BRD4-Degrading PROTACs” (J Med Chem, 2022).
Values after ≈ are worked out from the molar mass of the structure shown. Active and inactive are the calls of the source. The calls are words filed in the database; no cut-off is given here. Where a SMILES comes first, the peptide text is derived from it. [ ]: non-standard residue; d: D form. The star is where a group is joined. JQ1acid = Cc1sc2c(c1C)C(c1ccc(Cl)cc1)=N[C@@H](CC(=O)*)c1nnc(C)n1-2; NHBn(4-(4-Me-thiazol-5-yl)) = Cc1ncsc1-c1ccc(CN*)cc1; Hyp = O=C(O)[C@@H]1C[C@@H](O)CN1; Tle = CC(C)(C)[C@H](N)C(=O)O; Sar = CNCC(=O)O

Key:
[1] = Thermodynamic solubility of compound in phosphate buffer at pH 7.4 incubated for 2 hrs with shaking by LC-UV analysis; assay type: physicochemical; details: read-out: Therm_solubility
[2] = Thermodynamic solubility of compound in HCL at pH 2 incubated for 2 hrs with shaking by LC-UV analysis; assay type: physicochemical; details: read-out: Therm_solubility
[3] = molecular target: von Hippel-Lindau disease tumor suppressor/Bromodomain-containing protein 4 (Homo sapiens) (UniProt O60885+P40337); assay: Protac activity at BRD4/VHL E3 ligase in human MDA-MB-231 cells assessed as decrease in BRD4 expression at 1 uM incubated for 4 to 24 hrs by Western blot analysis; assay type: cell-based; details: time lower 4.0 hrs, time upper […]
Sequence of von Hippel-Lindau disease tumor suppressor/Bromodomain-containing protein 4 (Homo sapiens) (P40337 whole entry, looked up, other chains not shown): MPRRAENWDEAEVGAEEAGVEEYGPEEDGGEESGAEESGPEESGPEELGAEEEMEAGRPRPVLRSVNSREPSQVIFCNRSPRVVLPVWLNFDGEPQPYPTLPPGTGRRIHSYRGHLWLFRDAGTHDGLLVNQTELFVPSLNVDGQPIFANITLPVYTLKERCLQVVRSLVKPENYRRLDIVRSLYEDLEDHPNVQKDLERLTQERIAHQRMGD

solubility thermodynamic at 2 h [1] [µM] | solubility thermodynamic at 2 h [2] [µM] | Activity [3] | SMILES
60 (≈ 47.1 µg/mL) | 171 (≈ 134 µg/mL) | – | Cc1sc2c(c1C)C(c1ccc(Cl)cc1)=N[C@@H](CC(=O)NCCCCNC(=O)COc1cccc3c1C(=O)N(C1CCC(=O)NC1=O)C3=O)c1nnc(C)n1-2 (stereo not given in full)
– | – | inactive | Cc1ncsc1-c1ccc(CNC(=O)[C@@H]2C[C@@H](O)CN2C(=O)[C@@H](NC(=O)CCCNC(=O)CN2CCN(C(=O)C[C@@H]3N=C(c4ccc(Cl)cc4)c4c(sc(C)c4C)-n4c(C)nnc43)CC2)C(C)(C)C)cc1
– | – | inactive | Cc1ncsc1-c1ccc(CNC(=O)[C@@H]2C[C@@H](O)CN2C(=O)[C@@H](NC(=O)CNC(=O)CN2CCN(C(=O)C[C@@H]3N=C(c4ccc(Cl)cc4)c4c(sc(C)c4C)-n4c(C)nnc43)CC2)C(C)(C)C)cc1
– | – | inactive | Cc1ncsc1-c1ccc(CNC(=O)[C@@H]2C[C@@H](O)CN2C(=O)[C@@H](NC(=O)CNC(=O)CN(C)C(=O)C[C@@H]2N=C(c3ccc(Cl)cc3)c3c(sc(C)c3C)-n3c(C)nnc32)C(C)(C)C)cc1 (JQ1acid-[Sar]G[Tle][Hyp]-{NHBn(4-(4-Me-thiazol-5-yl))})
